Patent US20120302569A1, “PHENYL-THIAZOLYL INHIBITORS OF PRO-MATRIX METALLOPROTEINASE ACTIVATION” (priority 2011, published 2012)
Structures can show the parent of a compound that is named as a salt.

Experiments:
[1] = target: T1, proMMP13(1-268) (SEQ ID NO:7) (Homo sapiens, UniProt P45452); assay: ProMMP13/Plasmin P126 Activation Assay; assay type: biochemical; conditions: proMMP13(1-268) activated by plasmin
T1 construct: 6×-histidine tag (C); made in house; host or cells: HEK293 (transient transfection, secreted)
Experimental: ProMMP13/Plasmin P126 Activation Assay
On the day of assay, proMMP13(1-268) (SEQ ID NO:7) purified from HEK293 cells and plasmin were diluted to 160 nM and 320 nM, respectively, in assay buffer. The reaction volume was 50 μL. […] The plate was sealed and incubated for 40 min at 37° C. […] Plasmin was not reactive towards P-126 substrate under these conditions.

[2] = target: T2, proMMP9(20-445;ΔFnII) (SEQ ID NO:6) (Homo sapiens, UniProt P14780, DEL216-390); assay: ThermoFluor with proMMP9(20-445;ΔFnII); conditions: read-out: proMMP9(20-445; ΔFnII) (SEQ ID NO: 6) binding
T2 construct: start methionine (N); made in house; host or cells: E. coli BL21(DE3) RIL
T2 sequence (P14780 with tags, fused parts or gaps DEL216-390): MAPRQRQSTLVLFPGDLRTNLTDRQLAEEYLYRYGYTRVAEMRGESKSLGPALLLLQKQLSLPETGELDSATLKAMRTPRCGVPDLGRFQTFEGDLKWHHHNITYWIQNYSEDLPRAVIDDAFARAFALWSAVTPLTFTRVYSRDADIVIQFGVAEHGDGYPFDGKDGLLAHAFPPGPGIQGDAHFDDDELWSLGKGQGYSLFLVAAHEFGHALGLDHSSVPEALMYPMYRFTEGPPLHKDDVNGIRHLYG
Experimental: (§1) The ThermoFluor® (TF) assay is a 384-well plate-based binding assay that measures thermal stability of proteins (Biomol Screen 2001, 6, 429-40; Biochemistry 2005, 44, 5258-66). The experiments were carried out using instruments available from Johnson & Johnson Pharmaceutical Research & Development, LLC. TF dye used in all experiments was […] (1,8-ANS) (Invitrogen: A-47).
(§2) Compounds were arranged in a pre-dispensed plate (Greiner Bio-one: 781280), wherein compounds were serially diluted in 100% DMSO across 11 columns within a series. Columns 12 and 24 were used as DMSO reference and contained no compound. For multiple compound concentration-response experiments, the compound aliquots (50 nL) were robotically predispensed directly into black 384-well polypropylene PCR microplates (Abgene: TF-0384/k) using a Cartesian Hummingbird liquid handler (DigiLab, Holliston, Mass.). Following compound dispense, protein and dye solutions were added to achieve the final assay volume of 3 μL. The assay solutions were overlayed with 1 μL of silicone oil (Fluka, type DC 200: 85411) to prevent evaporation.
(§3) Assay plates were robotically loaded onto a thermostatically controlled PCR-type thermal block and then heated from 40 to 90° C. at a ramp-rate of 1° C./min for all experiments. Fluorescence was measured by continuous illumination with UV light (Hamamatsu LC6) supplied via fiber optics and filtered through a band-pass filter (380-400 nm; >6 OD cutoff). Fluorescence emission of the entire 384-well plate was detected by measuring light intensity using a CCD camera (Sensys, Roper Scientific) filtered to detect 500±25 nm, resulting in simultaneous and independent readings of all 384 wells. A single image with 20-sec exposure time was collected at each temperature, and the sum of the pixel intensity in a given area of the assay plate was recorded vs temperature and fit to standard equations to yield the Tm (J Biomol Screen 2001, 6, 429-40).
(§4) Thermodynamic parameters necessary for fitting compound binding for each proMMP were estimated by differential scanning calorimetry (DSC) and from ThermoFluor® data. The heat capacity of unfolding for each protein was estimated from the molecular weight and from ThermoFluor® dosing data.
ThermoFluor® with proMMP9(20-445;ΔFnII) (SEQ ID NO:6)
The protein sample preparations included a desalting buffer exchange step via a PD-10 gravity column (GE Healthcare). The desalting buffer exchange was performed prior to diluting the protein to the final assay concentration of 2.8 μM proMMP9(20-445;ΔFnII) (SEQ ID NO:6). The concentration of proMMP9(20-445;ΔFnII) (SEQ ID NO:6) was determined spectrophotometrically based on a calculated extinction coefficient of ε280=39880 M^−1cm^−1, a calculated molecular weight of 28.2 kDa, and calculated pI of 5.5. ThermoFluor® reference conditions were define as follows: 80 μg/mL (2.8 μM) proMMP9(20-445;ΔFnII) (SEQ ID NO:6), 50 μM 1,8-ANS, pH 7.0 Buffer (50 mM HEPES pH 7.0, 100 mM NaCl, 0.001% Tween-20, 2.5 mM MgCl2, 300 μM CaCl2). The thermodynamic parameters for proMMP9(20-445;ΔFnII) (SEQ ID NO:6) are as follows: Tm (° C.)=72 (+/−0.1), ΔUH(Tm) (cal mol^−1)=160000(+/−5000), ΔUS(Tm) (cal mol^−1 K^−1)=434, ΔUCp (cal mol^−1 K^−1)=2400.

[3] = target: T3, proMMP9(67-444;ΔFnII) (SEQ ID NO:5) (Homo sapiens, UniProt P14780, DEL216-390); assay: ThermoFluor with proMMP9(67-444;ΔFnII); conditions: read-out: proMMP9(67-444; ΔFnII) (SEQ ID NO: 5) binding
T3 construct: start methionine (N); made in house; host or cells: E. coli BL21(DE3) RIL
T3 sequence (P14780 with tags, fused parts or gaps DEL216-390): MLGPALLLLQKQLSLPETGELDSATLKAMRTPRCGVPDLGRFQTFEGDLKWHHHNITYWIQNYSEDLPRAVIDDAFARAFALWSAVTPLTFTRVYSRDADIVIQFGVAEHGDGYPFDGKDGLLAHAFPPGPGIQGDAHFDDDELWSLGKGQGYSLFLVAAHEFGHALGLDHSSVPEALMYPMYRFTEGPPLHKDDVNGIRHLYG
Experimental: as §1, §2, §3, §4
ThermoFluor® with proMMP9(67-444;ΔFnII) (SEQ ID NO:5)
The protein sample preparations had to include a desalting buffer exchange step via a PD-10 gravity column (GE Healthcare). The desalting buffer exchange was performed prior to diluting the protein to the final assay concentration of 3.5 μM proMMP9(67-444;ΔFnII) (SEQ ID NO:5). The concentration of proMMP9(67-444;ΔFnII) (SEQ ID NO:5) was determined spectrophotometrically based on a calculated extinction coefficient of ε280=33900 M^−1cm^−1, a calculated molecular weight of 22.6 kDa, and calculated pI of 5.20. ThermoFluor® reference conditions were defined as follows: 80 μg/mL (3.5 μM) proMMP9(67-444;ΔFnII) (SEQ ID NO:5), 50 μM 1,8-ANS, pH 7.0 Buffer (50 mM HEPES pH 7.0, 100 mM NaCl, 0.001% Tween-20, 2.5 mM MgCl2, 300 μM CaCl2). The thermodynamic parameters for proMMP9(67-444;ΔFnII) (SEQ ID NO:5) are as follows: Tm (° C.)=63 (+/−0.1), ΔUH(Tm) (cal mol^−1)=105000(+/−5000), ΔUS(Tm) (cal mol^−1 K^−1)=450, […].

[4] = target: T4, full-length proMMP9(1-707) (SEQ ID NO:1) (Homo sapiens, UniProt P14780, R574P); assay: proMMP9/MMP3 P126 Activation Assay; assay type: biochemical; conditions: proMMP9(1-707) from HEK293 cells activated by catalytic MMP3
T4 construct: made in house; host or cells: HEK293 (proMMP9, secreted); E. coli (MMP3)
Experimental: proMMP9/MMP3 P126 Activation Assay
The reaction volume was 50 μL. […] Reactivity of residual MMP3 towards P-126 substrate was minimal under these conditions.

T4 sequence (P14780 20-707 R574P): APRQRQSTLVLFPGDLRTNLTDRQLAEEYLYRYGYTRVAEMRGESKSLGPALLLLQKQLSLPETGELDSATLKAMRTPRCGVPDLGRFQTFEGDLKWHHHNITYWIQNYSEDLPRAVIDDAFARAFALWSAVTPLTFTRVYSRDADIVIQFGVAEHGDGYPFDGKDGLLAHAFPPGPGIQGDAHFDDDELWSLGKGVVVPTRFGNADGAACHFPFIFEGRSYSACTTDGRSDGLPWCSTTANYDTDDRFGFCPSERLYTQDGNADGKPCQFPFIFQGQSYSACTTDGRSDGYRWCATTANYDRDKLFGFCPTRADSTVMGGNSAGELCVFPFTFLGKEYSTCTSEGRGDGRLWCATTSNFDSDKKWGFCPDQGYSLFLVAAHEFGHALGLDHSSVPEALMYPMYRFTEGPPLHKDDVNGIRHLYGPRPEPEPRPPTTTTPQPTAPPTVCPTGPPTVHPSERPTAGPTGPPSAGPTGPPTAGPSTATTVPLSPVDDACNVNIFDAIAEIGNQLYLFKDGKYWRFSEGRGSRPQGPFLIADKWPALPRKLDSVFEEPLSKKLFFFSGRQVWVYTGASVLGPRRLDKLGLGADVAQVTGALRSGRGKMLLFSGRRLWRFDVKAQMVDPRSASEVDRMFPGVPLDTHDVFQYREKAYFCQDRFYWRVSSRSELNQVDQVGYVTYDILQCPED

| Structure (SMILES) | IC50 [1] | Kd [2] | Kd [3] | IC50 [4] |
| --- | --- | --- | --- | --- |
| COc1ccc(F)cc1Nc1nc(-c2ccc(CN3CCN(C4CC4)CC3)cc2)cs1 [Example 60, 4-(4-((4-cyclopropylpiperazin-1-yl)methyl)phenyl)-N-(5-fluoro-2-methoxyphenyl)thiazol-2-amine.TFA] |  | 35 µM | 9.4 µM | 0.93 µM |
| COc1ccc(F)cc1Nc1nc(-c2ccc(CN3CC[C@@H](F)C3)cc2)cs1 [Example 61, (R)—N-(5-fluoro-2-methoxyphenyl)-4-(4-((3-fluoropyrrolidin-1-yl)methyl)phenyl)thiazol-2-amine.TFA] |  | 53 µM | 5.6 µM | 1.5 µM |
| COc1ccc(F)cc1Nc1nc(-c2ccc(CN3CCC(F)CC3)cc2)cs1 [Example 62, N-(5-fluoro-2-methoxyphenyl)-4-(4-((4-fluoropiperidin-1-yl)methyl)phenyl)thiazol-2-amine.TFA] |  | 45 µM | 5.7 µM | 1.6 µM |
| COc1ccc(F)cc1Nc1nc(-c2ccc(CN3CCOCC3)cc2)cs1 [Example 64, N-(5-fluoro-2-methoxyphenyl)-4-(4-(morpholinomethyl)phenyl)thiazol-2-amine.TFA] |  | 48 µM | 6.2 µM | 2 µM |
| CC(C)Oc1ccc(F)cc1Nc1nc(-c2ccc(OCCN3CCOCC3)cc2)cs1 [Example 65, N-(5-fluoro-2-isopropoxyphenyl)-4-(4-(2-morpholinoethoxy)phenyl)thiazol-2-amine.TFA] |  | > 19 µM | 4.9 µM | ≥ 20 µM |
| COc1ccc(F)cc1Nc1nc(-c2ccc(OCCN3CCOCC3)cc2)cs1 [Example 66, N-(5-fluoro-2-methoxyphenyl)-4-(4-(2-morpholinoethoxy)phenyl)thiazol-2-amine.TFA] |  | > 19 µM | 2.9 µM | 1.8 µM |
| COc1ccc(F)cc1Nc1nc(-c2ccc(OCCN3CCC(F)(F)CC3)cc2)cs1 [Example 67, 4-(4-(2-(4,4-difluoropiperidin-1-yl)ethoxy)phenyl)-N-(5-fluoro-2-methoxyphenyl)thiazol-2-amine.TFA] |  | > 9 µM | 7.7 µM | ≥ 20 µM |
| COc1ccc(F)cc1Nc1nc(-c2ccc(OCCN3CCC(F)CC3)cc2)cs1 [Example 68, N-(5-fluoro-2-methoxyphenyl)-4-(4-(2-(4-fluoropiperidin-1-yl)ethoxy)phenyl)thiazol-2-amine.TFA] |  | > 19 µM | 2.6 µM | 1.3 µM |

The next compounds have a lower IC50 [4] than those just listed; values first:

| IC50 [1] | Kd [2] | Kd [3] | IC50 [4] | Structure (SMILES) |
| --- | --- | --- | --- | --- |
|  | > 76 µM | 2.1 µM | 0.48 µM | COc1ccc(F)cc1Nc1nc(-c2ccc(OCCN3CCN(C4CC4)CC3)cc2)cs1 [Example 70, 4-(4-(2-(4-cyclopropylpiperazin-1-yl)ethoxy)phenyl)-N-(5-fluoro-2-methoxyphenyl)thiazol-2-amine.TFA] |
|  | 0.098 µM | 0.18 µM | 0.3 µM | CC(C)Oc1ccc(S(N)(=O)=O)cc1Nc1nc(-c2ccc(CN3CCOCC3)cc2)cs1 [Example 59, 4-isopropoxy-3-((4-(4-(morpholinomethyl)phenyl)thiazol-2-yl)amino)benzenesulfonamide.TFA] |
|  | 4.6 µM | 0.96 µM | 0.25 µM | COc1ccc(F)cc1Nc1nc(-c2ccc(CN3CCN(C(C)C)CC3)cc2)cs1 [Example 63, N-(5-fluoro-2-methoxyphenyl)-4-(4-((4-isopropylpiperazin-1-yl)methyl)phenyl)thiazol-2-amine.TFA] |
|  | 44 µM | 1.8 µM | 0.2 µM | COc1ccc(F)cc1Nc1nc(-c2ccc(OCCCN3CCOCC3)cc2)cs1 [Example 71, N-(5-fluoro-2-methoxyphenyl)-4-(4-(3-morpholinopropoxy)phenyl)thiazol-2-amine.TFA] |
| 4 µM |  |  | 0.15 µM | CC(C)Oc1ccc(S(N)(=O)=O)cc1Nc1nc(-c2ccc(CN3CCN(C(C)C)CC3)cc2)cs1 [Example 57, 4-isopropoxy-3-((4-(4-((4-isopropylpiperazin-1-yl)methyl)phenyl)thiazol-2-yl)amino)benzenesulfonamide.TFA] |
| 0.39 µM | 0.088 µM | 0.088 µM | 0.074 µM | CC(C)Oc1ccc(S(N)(=O)=O)cc1Nc1nc(-c2ccc(N3CCN(C)CC3)cc2)cs1 [Example 3, 4-Isopropoxy-3-((4-(4-(4-methylpiperazin-1-yl)phenyl)thiazol-2-yl)amino)benzenesulfonamide.HCl] |
| 0.56 µM | 0.017 µM | 0.015 µM | 0.067 µM | CC(C)Oc1ccc(S(N)(=O)=O)cc1Nc1nc(-c2ccc(N3CCNCC3)c(Br)c2)cs1 [Example 2, 3-((4-(3-Bromo-4-(piperazin-1-yl)phenyl)thiazol-2-yl)amino)-4-isopropoxybenzenesulfonamide.TFA] |
| 0.23 µM | 0.015 µM | 0.006 µM | 0.02 µM | CC(C)Oc1ccc(S(N)(=O)=O)cc1Nc1nc(-c2ccc(N3CCNCC3)cc2)cs1 [Example 1, 4-Isopropoxy-3-((4-(4-(piperazin-1-yl)phenyl)thiazol-2-yl)amino)benzenesulfonamide.TFA] |
